EC50 data for 32 compounds are collected here from patent US10626095B2, “Cyanotriazole compounds” (OTSUKA PHARMACEUTICAL CO., LTD., priority 2013, dated 2020).

Each structure is given as a SMILES string.

The assay deals with NaCT-CHO (CHO cells stably expressing human NaCT). Briefly: Assay of the citric acid cycle activation ([1,5-14C]-citric acid, diffusion of [14C]-CO2). The format is cell-based. The note with it: 1 hour incubation at 37° C. with [1,5-14C]-citric acid. An excerpt: Assay of the Citric Acid Cycle Activation
(1) Construction of the Human NaCT Expression Vector pME-NaCT
The human NaCT (also called SLC13A5 or NAC2; GenBank accession No. NM_177550) cDNA was inserted into the EcoRI-NotI site of the mammalian expression vector pME18S (GenBank accession No. AB009864) and purified by Qiagen Plasmid Maxi Kit (Qiagen).
(2) Establishment of NaCT Stably Expressed CHO Cells
The pME-NaCT vector and the pcDNA™3.1 vector containing the neomycin resistance gene (Life Technologies) were co-transfected into CHO-K1 cells (ATCC) by Lipofectaimine 2000 reagent (Life Technologies). The next day the cells were subcultured in Nutrient Mixture F-12 Ham (Sigma-Aldrich) with 10% FBS (Biological Industries), and Geneticin (Life Technologies) was added (final concentration 350 μg/mL) in the following day. CHO cell clones stably expressing NaCT were given by neomycin resistant cell screening and limiting dilution method. Established cell lines (named NaCT-CHO) were also maintained in culture medium (Nutrient Mixture F-12 Ham) with 10% FBS and 350 μg/mL Geneticin. For control cells (named pME-CHO) preparation, the naive pME18S were also transfected instead of pME-NaCT into CHO-K1 cells.
(3) Assay of the Citric Acid Cycle Activation
NaCT-CHO and pME-CHO were plated at 20,000 cells/well into white CulturPlate™-96 (PerkinElmer) two days before the assay. Prior to assay incubation, the cultured plates were washed twice with washing buffer, 10 mM HEPES-Tris(pH7.4) containing 140 mM choline chloride, 2 mM KCl, 1 mM CaCl2, 1 mM MgCl2. The compounds to be tested were dissolved and diluted in DMSO (Wako Pure Chemical industries) to 1,000 times of a final concentration, and further diluted to two times as high as the final concentration in assay buffer, 10 mM HEPES-Tris(pH7.4) containing 140 mM NaCl, 2 mM KCl, 1 mM CaCl2, 1 mM MgCl2. The range of final concentrations was properly determined based on the test compounds activity. Each 25 μL compound solution was added to well and subsequently 25 μL radio-labeled substrate solution containing 0.4 mM (0.4 MBq/mL) [1,5-^14C]-citric acid (PerkinElmer) in the assay buffer was added. After 1 hour incubation at 37° C., the reaction mixture was discarded and washed three times with pre-chilled washing buffer and then 0.1 mL MicroScint 20 (PerkinElmer) was added to well. The plate was sealed with TopSeal-A (PerkinElmer) and the radioactivity was measured using a TopCount (PerkinElmer). Non-specific activity (NS cpm) and total radio activity (Total cpm) were determined by counting of pME-CHO plated wells and NaCT-CHO plated wells without compounds, respectively. Diffusion of [^14C]—CO2 was able to be estimated from residual radioactivity (R cpm) by an equation (Total−R)/(Total−NS)×100(%). The difference of Total and R was disappeared in the presence of 0.1 μM antimycin A. EC50 values were calculated by regression analysis using SAS Statistical Analysis System (SAS institute Japan Ltd. Release 9.1).
The EC50 is the concentration needed to bring the measured effect to its halfway point. Low values mean higher potency in that assay, high ones lower potency in that assay. `N#Cc1[nH]nnc1-c1cc(Cl)cc(CC2CC2)c1` [Example 1, 5-(3-chloro-5-cyclopropylmethyl-phenyl)-3H-[1,2,3]triazole-4-carbonitrile] had a 50% effective concentration (EC50) of 500 nM.
The same measure for `N#Cc1[nH]nnc1-c1cc(OCCCC(F)(F)F)cc(C(F)(F)F)c1` [Example 2, 5-[3-(4,4,4-trifluoro-butoxy)-5-trifluoromethyl-phenyl]-3H-[1,2,3]triazole-4-carbonitrile]: 280 nM; for `N#Cc1[nH]nnc1-c1cccc(COCC2CCCCC2)c1` [Example 3, 5-(3-cyclohexylmethoxymethyl-phenyl)-3H-[1,2,3]triazole-4-carbonitrile]: 260 nM; for `N#Cc1[nH]nnc1-c1cc(Cl)ccc1-c1cccc(C(F)(F)F)c1` [Example 4, 5-(4-chloro-3′-trifluoromethyl-biphenyl-2-yl)-3H-[1,2,3]triazole-4-carbonitrile]: 240 nM.
The same measure for `N#Cc1[nH]nnc1-c1ccccc1Cc1cc(C(F)(F)F)cc(C(F)(F)F)c1` [Example 5, 5-[2-(3,5-bis-trifluoromethyl-benzyl)-phenyl]-3H-[1,2,3]triazole-4-carbonitrile]: 200 nM.
To `N#Cc1[nH]nnc1-c1cc(C(F)(F)F)ccc1/C=C/c1ccccc1` [Example 6, 5-[2-((E)-styryl)-5-trifluoromethyl-phenyl]-3H-[1,2,3]triazole-4-carbonitrile] belongs 400 nM; to `N#Cc1[nH]nnc1-c1cc(C(F)(F)F)ccc1CCc1ccccc1` [Example 7, 5-(2-phenethyl-5-trifluoromethyl-phenyl)-3H-[1,2,3]triazole-4-carbonitrile], 170 nM.
`N#Cc1[nH]nnc1-c1cc(Cl)ccc1/C=C/c1cccc(C(F)(F)F)c1` [Example 8, 5-{5-chloro-2-[(E)-2-(3-trifluoromethyl-phenyl)-vinyl]-phenyl}-3H-[1,2,3]triazole-4-carbonitrile] displayed a concentration for a half-maximal effect (EC50) of 290 nM.
`Cc1cc(F)cc(-c2nn[nH]c2C#N)c1OCc1cc(F)cc(C(F)(F)F)c1` [Example 9, 5-[5-fluoro-2-(3-fluoro-5-trifluoromethyl-benzyloxy)-3-methyl-phenyl]-3H-[1,2,3]triazole-4-carbonitrile]: it took 230 nM to reach a half-maximal effect (EC50).
In turn, `N#Cc1[nH]nnc1-c1cc(-c2ccsc2)cc(C(F)(F)F)c1` [Example 10, 5-(3-(thiophen-3-yl)-5-trifluoromethyl-phenyl)-3H-[1,2,3]triazole-4-carbonitrile] came in with an EC50 of 70 nM.
The same measure for `N#Cc1[nH]nnc1-c1cc(-c2ccc(C(F)(F)F)nc2)cc(C2CC2)c1` [Example 12, 5-[3-cyclopropyl-5-(6-trifluoromethyl-pyridin-3-yl)-phenyl]-3H-[1,2,3]triazole-4-carbonitrile]: 690 nM; for `CC(C)(C)c1cc(-c2ccc(C(F)(F)F)cn2)cc(-c2nn[nH]c2C#N)c1` [Example 13, 5-[3-tert-butyl-5-(5-trifluoromethyl-pyridin-2-yl)-phenyl]-3H-[1,2,3]triazole-4-carbonitrile]: 870 nM.
The same measure for `CCOc1ccc(-c2ccc(C(F)(F)F)nc2)cc1-c1nn[nH]c1C#N` [Example 16, 5-[2-ethoxy-5-(6-trifluoromethyl-pyridin-3-yl)-phenyl]-3H-[1,2,3]triazole-4-carbonitrile]: 670 nM; for `CC(C)Oc1ccc(-c2nn[nH]c2C#N)cc1-c1ccc(C(F)(F)F)nc1` [Example 17]: 520 nM; for `N#Cc1[nH]nnc1-c1cc(OCC2CC2)cc(-c2ccc(C(F)(F)F)cn2)c1` [Example 18, 5-[3-cyclopropylmethoxy-5-(5-trifluoromethyl-pyridin-2-yl)-phenyl]-3H-[0,1,2,3]triazole-4-carbonitrile]: 570 nM.
To `N#Cc1[nH]nnc1-c1cc(OC2CCC2)cc(-c2ccc(C(F)(F)F)nc2)c1` [Example 19, 5-[3-cyclobutoxy-5-(6-trifluoromethyl-pyridin-3-yl)-phenyl]-3H-[1,2,3]triazole-4-carbonitrile] belongs 530 nM; to `N#Cc1[nH]nnc1-c1cc(OCc2cccc(C(F)(F)F)c2)cc(-c2ccc(C(F)(F)F)cn2)c1` [Example 20, 5-[3-(3-trifluoromethyl-benzyloxy)-5-(5-trifluoromethyl-pyridin-2-yl)-phenyl]-3H-[1,2,3]triazole-4-carbonitrile], 1620 nM; to `N#Cc1[nH]nnc1-c1cc(Cl)cc(N2CCC(C(F)(F)F)CC2)c1` [Example 24, 5-[3-chloro-5-(4-trifluoromethyl-piperidin-1-yl)-phenyl]-3H-[1,2,3]triazole-4-carbonitrile], 480 nM.
`N#Cc1[nH]nnc1-c1cc(Cl)cc(-c2csc3ccccc23)c1` [Example 25, 5-(3-(benzo[b]thiophen-3-yl)-5-chloro-phenyl)-3H-[1,2,3]triazole-4-carbonitrile] showed an EC50 of 540 nM.
`N#Cc1[nH]nnc1-c1ccc(F)c(-c2cc3ccccc3o2)c1` [Example 26, 5-(3-(benzofuran-2-yl)-4-fluoro-phenyl)-3H-[1,2,3]triazole-4-carbonitrile] had an EC50 of 690 nM.
The same measure for `N#Cc1[nH]nnc1-c1cccc(-c2nc3cc(F)ccc3o2)c1` [Example 27, 5-[3-(5-fluoro-benzoxazol-2-yl)-phenyl]-3H-[1,2,3]triazole-4-carbonitrile]: 890 nM; for `N#Cc1[nH]nnc1-c1cc(F)cc(-c2cccc(C(F)(F)F)c2)c1` [Example 28, 5-(5-fluoro-3′-trifluoromethyl-biphenyl-3-yl)-3H-[1,2,3]triazole-4-carbonitrile]: 370 nM; for `N#Cc1[nH]nnc1-c1cc(Cl)cc(-c2ccc3c(c2)OC(F)(F)O3)c1` [Example 30, 5-[3-chloro-5-(2,2-difluoro-benzo[1,3]dioxol-5-yl)-phenyl]-3H-[1,2,3]triazole-4-carbonitrile]: 640 nM.
The same measure for `Cc1cc(-c2cc(F)cc(C(F)(F)F)c2)cc(-c2nn[nH]c2C#N)c1` [Example 31, 5-(5′-fluoro-5-methyl-3′-trifluoromethyl-biphenyl-3-yl)-3H-[1,2,3]triazole-4-carbonitrile]: 380 nM; for `COc1ccc(-c2nn[nH]c2C#N)cc1-c1ccc(F)c(F)c1` [Example 32, 5-(3′,4′-difluoro-6-methoxy-biphenyl-3-yl)-3H-[1,2,3]triazole-4-carbonitrile]: 740 nM.
`CCOCc1cc(-c2ccc(F)cc2)cc(-c2nn[nH]c2C#N)c1` [Example 33, 5-(5-ethoxymethyl-4′-fluoro-biphenyl-3-yl)-3H-[1,2,3]triazole-4-carbonitrile] gave an EC50 of 270 nM.
`N#Cc1[nH]nnc1-c1cc(Cc2ccc(F)cc2)cc(OC(F)(F)F)c1` [Example 34, 5-[3-(4-fluoro-benzyl)-5-trifluoromethoxy-phenyl]-3H-[1,2,3]triazole-4-carbonitrile] returned an EC50 of 460 nM.
Turning to `N#Cc1[nH]nnc1-c1cc(Cl)cc(Cc2cc(C(F)(F)F)ccc2C(F)(F)F)c1` [Example 35, 5-[3-(2,5-bis-trifluoromethyl-benzyl)-5-chloro-phenyl]-3H-[1,2,3]triazole-4-carbonitrile], it took 340 nM to reach a half-maximal effect (EC50).
To `N#Cc1[nH]nnc1-c1cccc(CN2CCc3ccccc32)c1` [Example 36, 5-[3-(2,3-dihydro-indol-1-ylmethyl)-phenyl]-3H-[1,2,3]triazole-4-carbonitrile] belongs 450 nM.
In turn, `N#Cc1[nH]nnc1-c1cc(Oc2ccccc2)cc(C(F)(F)F)c1` [Example 37, 5-(3-phenoxy-5-trifluoromethyl-phenyl)-3H-[1,2,3]triazole-4-carbonitrile] registered a concentration giving a half-maximal response (EC50) of 120 nM.
Compound `N#Cc1[nH]nnc1-c1cccc(Sc2ccc(Cl)cc2)c1` [Example 38, 5-[3-(4-chloro-phenylsulfanyl)-phenyl]-3H-[1,2,3]triazole-4-carbonitrile] had a concentration giving a half-maximal response (EC50) of 420 nM.
The compound `N#Cc1[nH]nnc1-c1cc(CCc2cccc(C(F)(F)F)n2)cc(C(F)(F)F)c1` [Example 39, 5-{3-trifluoromethyl-5-[2-(6-trifluoromethyl-pyridin-2-yl)-ethyl]-phenyl}-3H-[1,2,3]triazole-4-carbonitrile] had an EC50 of 710 nM.
